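Method: 48-hour compound exposure of cells in 96-well plates, five concentrations, linear interpolation of endpoints. GI50: concentration for 50% inhibition of growth.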 The source made the active and inactive calls. Cut-off read from the data, not from the text of the source: active = GI50 up to about 1.1 µM and inactive = higher.
Experiments:
Experiment in all cases: NCI-60 cell line screen, 48 h
A549 = test system: A549
HCC 2998 = test system: HCC 2998
HOP-62 = test system: HOP-62
K562 = test system: K562
LOX IMVI = test system: LOX IMVI
Malme-3M = test system: Malme-3M
NCI-H23 = test system: NCI-H23
OVCAR-4 = test system: OVCAR-4
OVCAR-8 = test system: OVCAR-8
SF-539 = test system: SF-539
SK-MEL-28 = test system: SK-MEL-28
SK-OV-3 = test system: SK-OV-3
SN12C = test system: SN12C
SW-620 = test system: SW-620
UACC-257 = test system: UACC-257
EKVX = test system: EKVX
UACC-62 = test system: UACC-62
SR = test system: SR

Measured: GI50

CC(=O)Nc1ccc(-c2nnc(SCC(=O)Nc3ccc(Cl)cc3Cl)o2)cc1
inactive: A549 > 100 µM | HCC 2998 > 100 µM | HOP-62 70 µM | K562 28.8 µM | LOX IMVI 27.8 µM | Malme-3M 20.7 µM | NCI-H23 26.2 µM | OVCAR-4 37.4 µM | OVCAR-8 38.2 µM | SF-539 33 µM | SK-MEL-28 > 100 µM | SK-OV-3 64.3 µM | SN12C 20.2 µM | SW-620 32.4 µM | UACC-257 44.2 µM

COC(OC)c1cc2c(cc1C(=O)[C@@]13CCC[C@@H]1NC(=O)O3)OCO2
inactive: EKVX > 100 µM | HOP-62 > 100 µM | K562 > 100 µM | Malme-3M 22.6 µM | NCI-H23 78.5 µM | OVCAR-4 > 100 µM | OVCAR-8 > 100 µM | SF-539 > 100 µM | SK-MEL-28 > 100 µM | SK-OV-3 > 100 µM | SN12C > 100 µM | SW-620 > 100 µM | UACC-257 > 100 µM | UACC-62 34.1 µM

O=C1C=C(Nc2ccccc2C(=O)CC(=O)C(=O)Nc2cccc([N+](=O)[O-])c2)c2ccccc2C1=O
inactive: A549 83.9 µM | EKVX > 100 µM | HCC 2998 > 100 µM | HOP-62 > 100 µM | K562 17.7 µM | LOX IMVI 4.82 µM | Malme-3M 20.4 µM | NCI-H23 26.9 µM | OVCAR-4 26.9 µM | OVCAR-8 28 µM | SF-539 > 100 µM | SK-MEL-28 46 µM | SK-OV-3 > 100 µM | SN12C 23.4 µM | SW-620 25.6 µM | UACC-257 27.2 µM | UACC-62 26.6 µM

CCOc1ccc(NC(=O)CC2Sc3ccccc3NC2=O)cc1 (centres undefined)
inactive: A549 > 100 µM | EKVX > 100 µM | HCC 2998 38.2 µM | HOP-62 44.9 µM | K562 65.2 µM | Malme-3M 97.5 µM | NCI-H23 > 100 µM | OVCAR-4 18.4 µM | OVCAR-8 21.1 µM | SF-539 45.3 µM | SK-MEL-28 > 100 µM | SK-OV-3 41.3 µM | SN12C > 100 µM | SW-620 14.5 µM | UACC-257 > 100 µM | UACC-62 > 100 µM

CSc1nc(NC2OC(COC(C)=O)C(OC(C)=O)C(OC(C)=O)C2OC(C)=O)c2c(n1)OCC2=O (centres undefined)
inactive: A549 > 100 µM | HOP-62 > 100 µM | K562 > 100 µM | LOX IMVI > 100 µM | Malme-3M > 100 µM | NCI-H23 > 100 µM | OVCAR-4 > 100 µM | OVCAR-8 > 100 µM | SF-539 > 100 µM | SK-MEL-28 > 100 µM | SK-OV-3 > 100 µM | SN12C > 100 µM | SR > 100 µM | SW-620 > 100 µM | UACC-257 > 100 µM | UACC-62 > 100 µM

OC12CC/C(=N/OCc3ccccc3)CC1c1ccccc12 (centres undefined)
inactive: A549 > 100 µM | EKVX > 100 µM | HCC 2998 > 100 µM | HOP-62 > 100 µM | K562 > 100 µM | LOX IMVI > 100 µM | Malme-3M > 100 µM | NCI-H23 > 100 µM | OVCAR-4 > 100 µM | OVCAR-8 > 100 µM | SF-539 > 100 µM | SK-MEL-28 > 100 µM | SK-OV-3 > 100 µM | SN12C > 100 µM | UACC-257 > 100 µM | UACC-62 > 100 µM

CCOC(=O)c1cc(/C=C/C(C)=C/C(=O)OC)oc1-c1ccccc1
inactive: A549 49.8 µM | EKVX > 100 µM | HCC 2998 > 100 µM | K562 33.8 µM | LOX IMVI > 100 µM | Malme-3M > 100 µM | NCI-H23 61.8 µM | OVCAR-4 63.5 µM | OVCAR-8 92.7 µM | SF-539 43.9 µM | SK-OV-3 > 100 µM | SN12C 73.8 µM | SW-620 > 100 µM | UACC-257 61.8 µM | UACC-62 41.3 µM

CCn1c2ccccc2c(=O)c2c(OC)ccc(OC)c21
inactive: A549 55.6 µM | EKVX > 66.5 µM | HOP-62 54.3 µM | K562 37.2 µM | LOX IMVI 36.1 µM | Malme-3M 68.5 µM | NCI-H23 > 83.8 µM | OVCAR-4 31.3 µM | OVCAR-8 56.8 µM | SF-539 68.1 µM | SK-OV-3 64.9 µM | SN12C 42.5 µM | SR 34.9 µM | SW-620 32.8 µM | UACC-257 41.4 µM | UACC-62 43.6 µM

N#CC1=C(c2ccccc2)NN(Cc2ccccc2)C(c2ccc(Cl)cc2)CC1=O (centres undefined)
inactive: A549 18.2 µM | LOX IMVI 18 µM | NCI-H23 20.1 µM | OVCAR-4 20.9 µM | SK-MEL-28 39.8 µM | SK-OV-3 > 10 µM | SR 20.6 µM | SW-620 20.2 µM | UACC-257 37.8 µM

CN(C)C(=Nc1nc(N(C)C)s[s+]1)N(C)C
inactive: A549 > 100 µM | EKVX > 100 µM | HCC 2998 > 100 µM | HOP-62 > 100 µM | K562 > 100 µM | NCI-H23 > 100 µM | OVCAR-4 > 100 µM | OVCAR-8 > 100 µM | SF-539 > 100 µM | SK-MEL-28 > 100 µM | SK-OV-3 > 100 µM | SN12C > 100 µM | SW-620 > 100 µM | UACC-257 > 100 µM | UACC-62 > 100 µM

Reference: ChEMBL document CHEMBL1201862, “PubChem BioAssay data set” (2004)
